Laboratory results from US20150132328A1 (priority 2011, published 2015).
Like-named read-outs stand apart in the source and are kept apart here.

Assays:
[1] = system: human lymphocytes
[2] = system: antibodies vs. LR.4 cells
Procedure: This was performed by flow cytometry. LR.4 cells were washed and incubated in serum dilutions obtained from mice, using as second antibody an antibody vs. mouse conjugated to fluoresce.

[3] = system: human leukocytes; conditions: for Phagocytosis: peptide 10^-10M + zinc 10^-9M
Text: In order to test a different effect of the proliferation, we decided to investigate the effect of peptide+zinc versus peptide+zinc+DTPA on human leukocytes phagocytosis.

[4] = system: BMK-16myc cells tumor; conditions: for Metastases (animals with detected metastases/total number of animals): Tumor + IMMP
Text: We used BMK-16myc cells which are baby mouse kidney cells immortalized with genes of 16 protein of the human papilloma virus (HPV) and the myc gene, which grow in mouse, are highly invasive and produce metastases rapidly. One million cells were implanted subcutaneously in the back of each mouse. […] Subsequently, the animals were sacrificed and the tumors under the back skin as well as thymus, spleen, liver and kidney were collected for histopathological examination.

[5] = system: stress model induced in mice; conditions: for Corticosterone / IL-1: Table 22
[6] = system: thymocytes
Procedure: For that, we made organ culture in agarose gels and a filter with pores of 5 micron to prevent migration of the thymocytes. The Apoptosis was quantified with 7AAD and it was evaluated by flow cytometry.

[7] = system: newborn rat thymocytes; conditions: With A
[8] = system: antibodies against Newcastle; conditions: 10 ng/dose with Newcastle vaccine
[9] = system: LR.4 lymphoma
[10] = system: rats with rheumatoid arthritis
Text: This produces that in the third week appears edema of the cephalic and caudal extremities, which can be measured with a vernier. Inflammation is due to the presence of the own autoimmune response against […] of the rat.

[11] = STRESS + IMMP, 10 ng/dose i.p., Table 21

## Peptide LEDGPKFL + Zinc [IMMP]
[1]
  Concentrations that increased the proliferative response: 10-10 M
[2]; IMMP alone, no tumor, serum dilution 0
  % of LR.4 cells stained with the serum antibody: 0%
[2]; IMMP alone, no tumor, serum dilution 1:2
  % of LR.4 cells stained with the serum antibody: 0%
[2]; IMMP alone, no tumor, serum dilution 1:4
  % of LR.4 cells stained with the serum antibody: 0%
[2]; IMMP alone, no tumor, serum dilution 1:8
  % of LR.4 cells stained with the serum antibody: 0%
[2]; IMMP alone, no tumor, serum dilution 1:16
  % of LR.4 cells stained with the serum antibody: 0%
[2]; IMMP alone, no tumor, serum dilution 1:32
  % of LR.4 cells stained with the serum antibody: 0%
[2]; IMMP alone, no tumor, serum dilution 1:64
  % of LR.4 cells stained with the serum antibody: 0%
[2]; LR.4 + IMMP, serum dilution 0
  % of LR.4 cells stained with the serum antibody: 100%
[2]; LR.4 + IMMP, serum dilution 1:2
  % of LR.4 cells stained with the serum antibody: 100%
[2]; LR.4 + IMMP, serum dilution 1:4
  % of LR.4 cells stained with the serum antibody: 100%
[2]; LR.4 + IMMP, serum dilution 1:8
  % of LR.4 cells stained with the serum antibody: 100%
[2]; LR.4 + IMMP, serum dilution 1:16
  % of LR.4 cells stained with the serum antibody: 83%
[2]; LR.4 + IMMP, serum dilution 1:32
  % of LR.4 cells stained with the serum antibody: 40%
[2]; LR.4 + IMMP, serum dilution 1:64
  % of LR.4 cells stained with the serum antibody: 15%
[2]; mouse, in vivo
  Antibodies vs tumor relative to untreated group: four times more antibodies
[3]; 24 h
  Phagocytosis: 56 ± 2 arbitrary fluorescence intensity units
[3]; 48 h
  Phagocytosis: 185 ± 18 arbitrary fluorescence intensity units
[3]; 48 hours
  Increase of phagocytosis: about four times
[4]; Kidney
  Metastases (animals with detected metastases/total number of animals): 0/5
[4]; Liver
  Metastases (animals with detected metastases/total number of animals): 3/5
[4]; Spleen, 200 ng Kg i.p., 10 doses
  Metastases (animals with detected metastases/total number of animals): 0/5
[4]; Thymus
  Metastases (animals with detected metastases/total number of animals): 0/5
[4]; mouse, in vivo
  Animals in which development of metastasis was reduced: 40%
[4]; tendency to smaller tumors
  Tumor size vs untreated group: not statistically significant
[4]; tumor + IMMP (100% untreated)
  Animals with metastases in liver: 60%
[5]; IMMP alone
  Corticosterone: 33.5 ± 2.1 ng/dL
  IL-1: 6.9 ± 0.8 ng/dL
[5]; IMMP alone, Table 22 (title: C57BL/6J mice with lymphoma LR.4)
  WEIGHT: 13.8 ± 1.2 g
[5]; [11]
  IL-1 serum level: 6.9 ± 0.8 ng/dL
  WEIGHT: 13.8 ± 1.2 g
  corticosterone serum level: 33.5 ± 2.1 ng/dL
[5]; STRESS + IMMP
  Corticosterone: 43.1 ± 3.8 ng/dL
  IL-1: 18.1 ± 2.0 ng/dL
[5]; STRESS + IMMP, Table 22 (title: C57BL/6J mice with lymphoma LR.4)
  WEIGHT: 13.1 ± 0.9 g
[5]; stress + IMMP (36% without)
  Body weight loss: 11%
[5]; stress + IMMP (70% without)
  Increase in corticosteroid production induced by stress: 38%
[5]; stress + IMMP (three times without)
  Increase of plasma IL-1 over control: increased only once
[6]; [IMMP] 10^−8
  Thymocytes in apoptosis (%): 1.6 ± 0.8 %
[6]; [IMMP] 10^−9
  Thymocytes in apoptosis (%): 1.7 ± 0.7 %
[6]; [IMMP] 10^−10
  Thymocytes in apoptosis (%): 1.5 ± 0.09 %
[6]; [IMMP] 10^−11
  Thymocytes in apoptosis (%): 2.5 ± 0.91%
[7]; [M] 10^−6
  Cells Percent CD4: 15.1 ± 2.5%
  Cells Percent CD8: 5.3 ± 1.5%
  Cells Percent DN: 6.6 ± 1.7%
  Cells Percent DP: 72.2 ± 1.5%
[7]; [M] 10^−7
  Cells Percent CD4: 14.2 ± 3.7%
  Cells Percent CD8: 6.0 ± 2.2 %
  Cells Percent DN: 3.7 ± 0.2%
  Cells Percent DP: 73.3 ± 2.6%
[7]; [M] 10^−8
  Cells Percent CD4: 13.9 ± 2.6 %
  Cells Percent CD8: 6.1 ± 0.2 %
  Cells Percent DN: 7.1 ± 2.8%
  Cells Percent DP: 74.8 ± 0.7 %
[7]; [M] 10^−9
  Cells Percent CD4: 17.7 ± 1.9 %
  Cells Percent CD8: 4.8 ± 1.9%
  Cells Percent DN: 7.0 ± 1.1 %
  Cells Percent DP: 70.5 ± 1.2 %
[7]; [M] 10^−10
  Cells Percent CD4: 16.7 ± 1.0 %
  Cells Percent CD8: 4.7 ± 2.2%
  Cells Percent DN: 5.1 ± 1.9%
  Cells Percent DP: 73.3 ± 3.0%
[7]; [M] 10^−11
  Cells Percent CD4: 15.4 ± 0.8 %
  Cells Percent CD8: 6.0 ± 1.7%
  Cells Percent DN: 5.1 ± 2.0%
  Cells Percent DP: 74.8 ± 5.4%
[7]; [M] 10^−12
  Cells Percent CD4: 16.7 ± 0.9 %
  Cells Percent CD8: 6.0 ± 0.5 %
  Cells Percent DN: 6.4 ± 0.4%
  Cells Percent DP: 71.8 ± 3.5 %
[8]; Day 13
  Antibody production against Newcastle (number of times the serum could be diluted with 100% of the response): 0
[8]; Day 23
  Antibody production against Newcastle (number of times the serum could be diluted with 100% of the response): 18.0
[8]; Day 30
  Antibody production against Newcastle (number of times the serum could be diluted with 100% of the response): 64.5
[8]; Day 37
  Antibody production against Newcastle (number of times the serum could be diluted with 100% of the response): 60.2
[9]; IMMP alone, no tumor, week 0
  Body weight (control percent): 100 ± 2%
  Survival (percent of live animals): 100%
[9]; IMMP alone, no tumor, week 1
  Body weight (control percent): 100 ± 4%
  Survival (percent of live animals): 100%
[9]; IMMP alone, no tumor, week 2
  Body weight (control percent): 100 ± 5%
  Survival (percent of live animals): 100%
[9]; IMMP alone, no tumor, week 3
  Body weight (control percent): 100 ± 3%
  Survival (percent of live animals): 100%
[9]; IMMP alone, no tumor, week 4
  Body weight (control percent): 100 ± 3%
  Survival (percent of live animals): 100%
[9]; IMMP alone, no tumor, week 5
  Body weight (control percent): 100 ± 4%
  Survival (percent of live animals): 100%
[9]; IMMP alone, no tumor, week 6
  Body weight (control percent): 100 ± 3%
  Survival (percent of live animals): 100%
[9]; IMMP alone, no tumor, week 7
  Body weight (control percent): 100 ± 5%
  Survival (percent of live animals): 100%
[9]; IMMP alone, no tumor, week 8
  Survival (percent of live animals): 100%
[9]; IMMP alone, no tumor, week 9
  Survival (percent of live animals): 100%
[9]; IMMP alone, no tumor, week 10
  Survival (percent of live animals): 100%
[9]; IMMP alone, no tumor, week 11
  Survival (percent of live animals): 100%
[9]; IMMP alone, no tumor, week 12
  Survival (percent of live animals): 100%
[9]; IMMP alone, no tumor, week 13
  Survival (percent of live animals): 100%
[9]; IMMP alone, no tumor, week 14
  Survival (percent of live animals): 100%
[9]; LR.4 + IMMP, week 0
  Body weight (control percent): 100 ± 2%
  Survival (percent of live animals): 100%
[9]; LR.4 + IMMP, week 1
  Body weight (control percent): 101 ± 4%
  Survival (percent of live animals): 100%
[9]; LR.4 + IMMP, week 2
  Body weight (control percent): 116 ± 6 %
  Survival (percent of live animals): 100%
[9]; LR.4 + IMMP, week 3
  Body weight (control percent): 125 ± 8 %
  Survival (percent of live animals): 100%
[9]; LR.4 + IMMP, week 4
  Body weight (control percent): 126 ± 8 %
  Survival (percent of live animals): 100%
[9]; LR.4 + IMMP, week 5
  Body weight (control percent): 154 ± 11 %
  Survival (percent of live animals): 100%
[9]; LR.4 + IMMP, week 6
  Body weight (control percent): 152 ± 12 %
  Survival (percent of live animals): 100%
[9]; LR.4 + IMMP, week 7
  Body weight (control percent): 150 ± 11 %
  Survival (percent of live animals): 100%
[9]; LR.4 + IMMP, week 8
  Survival (percent of live animals): 100%
[9]; LR.4 + IMMP, week 9
  Survival (percent of live animals): 67%
[9]; LR.4 + IMMP, week 10
  Survival (percent of live animals): 50%
[9]; LR.4 + IMMP, week 11
  Survival (percent of live animals): 34%
[9]; LR.4 + IMMP, week 12
  Survival (percent of live animals): 16%
[9]; LR.4 + IMMP, week 13
  Survival (percent of live animals): 16%
[9]; LR.4 + IMMP, week 14
  Survival (percent of live animals): 0%
[9]; last two weeks
  Decrease of tumor growth: about 33%
[9]; mouse, in vivo
  Gain in survival at 50%: greater than 4 weeks
  Time all animals kept alive longer than the untreated group: 5 weeks
[10]; AR + treatment
  Number of rats showing Inflammation 0%: 3
  Number of rats showing Inflammation 50%: 3
  Number of rats showing Inflammation 100% of palmar and plantar pad: 6
[10]; IMMP alone, no arthritis
  Number of rats showing Inflammation 0%: 0
  Number of rats showing Inflammation 50%: 0
  Number of rats showing Inflammation 100% of palmar and plantar pad: 0
[10]; rat, in vivo
  Animals with inflammation reduced at 50%: 25%
  Animals with inflammation reduced at 100%: 25%
